For assay [1], the target named is T1, CDK9/Cyclin T1 (Homo sapiens, UniProt P50750).
T1 construct: made in house; host or cells: HEK293 cells, recombinant adenovirus
Description: Kinase assay using CDK9/Cyclin T1. It is filed as biochemical. Conditions: read-out: CDK9 (activity range). The source says: Cloning of CDK9 and Cyclin T1:
Both cDNA fragments were cloned by PCR into pDONR201 vectors using the gateway recombination system (Invitrogen) according to the manufacturer's recommendations. The fragments were subcloned into a gateway-adapted shuttle vector (pPM7) for production of recombinant adenovirus. All plasmids were verified by restriction digests and sequencing analysis.
Expression and Purification of CDK9/Cyclin T1 Proteins:
Expression and purification was in principle performed as described by Cotten et al. (M. Cotten et al., Nucleic acids research, 2003, 31(28), 128).
Kinase Assay Using CDK9/Cyclin T1:
Kinase assays were performed in principle as described by Cotten et al. (M. Cotten et al., Nucleic acids research, 2003, 31(28), 128).

Assay [2] addresses T2, CDK2/CyclinA (Homo sapiens, UniProt P24941).
T2 construct: purchased Proqinase
Nature of the assay: Kinase assay determining CDK2/CyclinA activity. In kind it is biochemical. The settings on record: read-out: CDK2 (activity range). The protocol:
Kinase Assays Determining CDK2/CyclinA and CDK5/p35 Activity:
Kinase assays were performed as described by the manufacturers recommendations (Proqinase for CDK2/CyclinA and Upsate for CDK5/p35).

T1 sequence (P50750 whole entry): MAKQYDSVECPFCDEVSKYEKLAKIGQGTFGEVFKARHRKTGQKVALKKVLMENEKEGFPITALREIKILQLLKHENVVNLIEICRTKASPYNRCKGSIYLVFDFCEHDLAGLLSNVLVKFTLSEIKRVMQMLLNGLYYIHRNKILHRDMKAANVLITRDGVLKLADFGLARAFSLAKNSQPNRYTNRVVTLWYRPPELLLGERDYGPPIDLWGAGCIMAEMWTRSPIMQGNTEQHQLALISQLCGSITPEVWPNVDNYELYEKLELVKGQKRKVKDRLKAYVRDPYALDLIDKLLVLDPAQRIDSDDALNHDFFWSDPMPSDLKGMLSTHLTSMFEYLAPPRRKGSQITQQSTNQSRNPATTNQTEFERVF
T1 sequence (O60563 whole entry partner): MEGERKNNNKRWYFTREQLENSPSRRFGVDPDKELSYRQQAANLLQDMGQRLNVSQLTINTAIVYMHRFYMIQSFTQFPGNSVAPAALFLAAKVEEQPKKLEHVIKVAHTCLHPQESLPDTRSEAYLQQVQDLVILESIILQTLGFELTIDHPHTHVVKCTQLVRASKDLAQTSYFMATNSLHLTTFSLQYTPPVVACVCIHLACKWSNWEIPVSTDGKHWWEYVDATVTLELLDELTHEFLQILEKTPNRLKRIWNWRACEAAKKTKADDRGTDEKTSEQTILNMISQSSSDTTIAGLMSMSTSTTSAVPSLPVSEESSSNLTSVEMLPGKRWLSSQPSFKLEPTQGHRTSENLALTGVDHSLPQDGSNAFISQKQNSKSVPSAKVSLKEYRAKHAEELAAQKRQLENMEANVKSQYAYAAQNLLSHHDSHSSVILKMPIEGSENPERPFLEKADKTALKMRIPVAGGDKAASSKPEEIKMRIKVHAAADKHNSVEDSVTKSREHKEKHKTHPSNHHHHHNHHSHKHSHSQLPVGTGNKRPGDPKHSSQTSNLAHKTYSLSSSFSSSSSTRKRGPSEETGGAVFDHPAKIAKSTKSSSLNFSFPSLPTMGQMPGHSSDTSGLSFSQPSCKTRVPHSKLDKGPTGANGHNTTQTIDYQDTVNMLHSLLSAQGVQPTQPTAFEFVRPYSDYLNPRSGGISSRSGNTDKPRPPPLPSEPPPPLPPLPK

Take `CS(=O)(=O)Nc1cccc(-c2cc(Nc3ccc(C(=O)N[C@@H]4CCCC[C@H]4N)cc3)ncn2)c1` (racemic) [(195)]: the IC50 was 1 to 1000 nM in assay [1] and 1000 to 10000 nM in assay [2].

In the case of `CCc1ccccc1-c1cc(Nc2ccc(NC(=O)C(C)(C)C)cc2)ncn1` [(131)], the IC50 was in the range of 10000 to 250000 nM in assay [1] and 1000 to 10000 nM in assay [2].

In the case of `C=Cc1ccccc1-c1cc(Nc2ccc(NC(=O)C(C)(C)C)cc2)ncn1` [(126)], the figures for the IC50 in assay [1] and in assay [2] were 1000 to 10000 nM and 10000 to 250000 nM, respectively.

For `Cc1ccc(Nc2cc(-c3cccc(C=O)c3)ncn2)cc1NS(C)(=O)=O` [(165)], the IC50 in assay [1] and in assay [2] was 1000 to 10000 nM each time.

For `Nc1ccc(C(=O)Nc2ccc(Nc3cc(-c4cccs4)ncn3)cc2)cc1` [(77)], the results for the IC50 in assay [1] and in assay [2] were 1000 to 10000 nM and 10000 to 250000 nM, respectively.

For the molecule `CC(C)(C)C(=O)Nc1ccc(Nc2cc(-c3ccccc3C(F)(F)F)ncn2)cc1` [(114)], the IC50 in assay [1] and in assay [2] was 10000 to 250000 nM each time.

`COc1ccc(-c2cc(Nc3ccc(NC(=O)c4ccc(N)cc4)cc3)ncn2)cc1` [(6)]: the IC50 in assay [1] lay in the range of 1 to 1000 nM; in assay [2], 1000 to 10000 nM.

Turning to `COc1ccccc1-c1cc(Nc2ccc(NC(=O)C(c3ccccc3)N(C)C)cc2)ncn1` (centres unmarked) [(101)], the IC50 in assay [1] lay within 1 to 1000 nM; in assay [2], 1000 to 10000 nM.

As for `CCOc1ccccc1-c1cc(Nc2ccc(NC(=O)c3ccc(N)cc3)cc2)ncn1` [(55)], the IC50 is 1 to 1000 nM in assay [1] and 1000 to 10000 nM in assay [2].

For the molecule `Cc1ccc(Nc2cc(-c3cccc(N(C)C)c3)ncn2)cc1NS(C)(=O)=O` [(157)], the IC50 in assay [1] lay within 1 to 1000 nM; in assay [2] it was 1000 to 10000 nM.

As to `Cc1ccc(Nc2cc(-c3cccc(N)c3)ncn2)cc1NS(C)(=O)=O` [(12)], the IC50 in assay [1] and in assay [2] was 1 to 1000 nM each time.

Take `COc1ccccc1-c1cc(Nc2ccc(NS(=O)(=O)C(C)C)cc2)ncn1` [(153)]: the IC50 in assay [1] and in assay [2] was 1 to 1000 nM in each case.

As for `CC(C)(C)C(=O)Nc1ccc(Nc2cc(NCCCO)ncn2)cc1` [(80)], the IC50 in assay [1] and in assay [2] was 10000 to 250000 nM in each case.

With `COc1ccccc1-c1cc(Nc2ccc(C(=O)NC(C)(C)C)cc2)ncn1` [(54)], the IC50 in assay [1] and in assay [2] was 1000 to 10000 nM each time.

For the molecule `Cc1ccc(Nc2cc(-c3ccccc3OC(C)C)ncn2)cc1NS(C)(=O)=O` [(158)], the IC50 in assay [1] and in assay [2] was 1 to 1000 nM throughout.

On to `CC(C)(C)C(=O)Nc1ccc(Nc2cc(NCCN)ncn2)cc1` [(79)], for which the IC50 in assay [1] and in assay [2] was 10000 to 250000 nM each time.

Consider `COc1ccccc1-c1cc(Nc2ccc(C(=O)NC3CCCCC3)cc2)ncn1` [(44)], for which the values for the IC50 in assay [1] and in assay [2] were 1 to 1000 nM and 1000 to 10000 nM, respectively.

Consider `COc1ccccc1-c1cc(Nc2ccc(NS(=O)(=O)c3ccccc3)cc2)ncn1` [(155)], for which the IC50 in assay [1] and in assay [2] was 1 to 1000 nM each time.

Consider `Cc1ccc(Nc2cc(-c3ccccc3OCc3ccccc3)ncn2)cc1NS(C)(=O)=O` [(156)], for which the IC50 in assay [1] and in assay [2] was 1 to 1000 nM throughout.

On to `c1ccc(COc2ccccc2-c2cc(NCCc3ccncc3)ncn2)cc1` [(7)], for which the IC50 fell in the range of 1 to 1000 nM in assay [1] and 1000 to 10000 nM in assay [2].

In the case of `Cc1ccc(Nc2cc(-c3cccc(NS(C)(=O)=O)c3)ncn2)cc1NS(C)(=O)=O` [(108)], the IC50 lay within 1000 to 10000 nM in assay [1] and 1 to 1000 nM in assay [2].

For the molecule `COc1ccccc1-c1cc(Nc2ccc(C(=O)Nc3ccc(C(C)C)cc3)cc2)ncn1` [(137)], the IC50 in assay [1] is 1000 to 10000 nM; in assay [2], 10000 to 250000 nM.

In the case of `COc1ccc(C(C)C)cc1-c1cc(Nc2ccc(NC(=O)c3ccc(N)cc3)cc2)ncn1` [(35)], the IC50 in assay [1] and in assay [2] was 10000 to 250000 nM throughout.

`Nc1ccc(C(=O)Nc2ccc(Nc3cc(-c4ccccc4)ncn3)cc2)cc1` [(76)]: the IC50 in assay [1] is 1000 to 10000 nM; in assay [2] it was 10000 to 250000 nM.

As to `COC(=O)CN(c1ccc(Nc2cc(-c3ccccc3OC)ncn2)cc1)S(=O)(=O)c1ccc(C)cc1` [(28)], the IC50 in assay [1] and in assay [2] was 1000 to 10000 nM throughout.

On to `Nc1ccc(C(=O)Nc2ccc(Nc3cc(Cl)ncn3)cc2)cc1` [(25)], for which the IC50 in assay [1] and in assay [2] was 10000 to 250000 nM each time.

With `COc1ccccc1-c1ncnc(Nc2ccc(N)cc2)c1C` [(152)], the IC50 in assay [1] and in assay [2] was 10000 to 250000 nM in each case.

As to `COc1ccccc1-c1cc(Nc2ccc(NC(=O)C3CC4CCC3C4)cc2)ncn1` (centres unmarked) [(36)], the IC50 in assay [1] was 1 to 1000 nM; in assay [2], 10000 to 250000 nM.

Source of the values: patent US8084457B2, “Pharmaceutically active 4,6-disubstituted aminopyrimidine derivatives as modulators of protein kinases” (Lead Discovery Center GmbH, priority 2003, dated 2011).
